The source of these data is publication PMC5905968, “Evaluation of the fusion inhibitor P3 peptide as a potential microbicide to prevent HIV transmission in women” (PLoS ONE, 2018).

Data set [1] relates to vaginal epithelium of BALB/c mice. Kind of data set: BALB/c mice vaginal irritation test with histological score. The following applies: for Edema/fibrosis / Epithelial lesion / Inflammatory infiltrate / Vascular congestion / Total Score: 3% N9 intravaginally, 7 days (irritation control); for Total Score: sum of the four lesion scores. More on the design: key to Epithelial lesion / Inflammatory infiltrate / Vascular congestion / Edema/fibrosis / Total Score: 0 (no change) when no injury or the observed changes were within normal range; 1 (minimum) when changes were sparse but exceeded those considered normal; 2 (light) when injuries were identifiable but with no severity; 3 (moderate) for significant injury that could increase in severity; 4 (very serious) for very serious injuries that occupy most of the analyzed tissue. The format is in vivo. Here is the method:
Female BALB/c mice (6–8 weeks-old) (Charles River Laboratories, Wilmington, MA) were pretreated subcutaneously with 2mg of medroxyprogesterone acetate (Depo-Provera; Pfizer, NY, USA) in PBS (Lonza, Verviers, Belgium). After five days, 30μl of test formulation with different doses of P3 diluted in PBS was applied intravaginally daily for 7 days by vaginal gavage to animals previously anesthetized with isoflurane (Forane, Abbott, Madrid). Controls included mice that received PBS (placebo group) and 3% nonoxynol-9 (N9) in PBS (irritation control group). On the eighth day, mice were sacrificed and genital tract tissue were extracted and fixed in 4% paraformaldehyde for histological analysis. The animals were distributed in groups of three mice each: group placebo only treated with PBS (1–3), group A treated with dose of 0.06mg/day ([…]) of P3 in PBS (4–6), group B treated with dose of 0.2mg/day (1522.7 μM) of P3 in PBS (7–9), group C treated with dose of 0.4mg/day (3045.3 μM) of P3 in PBS (10–12) and group irritation control treated with 3% N9 in PBS (13–15).
The presence of histological lesions in the mouse vaginas was evaluated with hematoxylin-eosin staining. Samples were embedded in paraffin by submersion in increasing concentrations of ethanol in water (Rectapur, VWR, England), two baths of xylene (Analar (VWR, England) and another of paraffin, before being placed in a paraffin mold. Subsequently, they were cut using a semimotorized microtome (RM2145 Leica, Germany) and processed for staining. For dewaxing, samples were submersed into two baths of xylene solution (10 min) and three baths in descending order of ethanol (100%, 90% and 70%) (5 min), before being stained with hematoxylin (Merck, Germany) for 5 min and eosin (Merck, Germany) for another 5 min. Post-eosin staining dehydration was performed with passages in increasing concentrations of ethanol (70%, 90% and 100%) and a bath of xylene solution. Finally, they were mounted with D.P.X. (Prolabo, VWR, Spain).
The existence of injury in vaginal epithelium, inflammatory infiltrate, vascular congestion and/or edema in the submucosa was evaluated in each biological sample. The values (score) assigned for each of these lesions were: 0 (no change) when no injury or the observed changes were within normal range; 1 (minimum) when changes were sparse but exceeded those considered normal; 2 (light) when injuries were identifiable but with no severity; 3 (moderate) for significant injury that could increase in severity; 4 (very serious) for very serious injuries that occupy most of the analyzed tissue. These values were added up and determined the level of vaginal irritation as minimum 1–4, average 5–8, moderate 9–11 and severe 12–16 [34].

For data set [2] the following is noted: at temperatures higher than 40 °C; cited from earlier work. Here is the method:
Microbicides must be stable at 37°C for a long period of time since it is the body temperature, and at 65 °C since some manufacturing processes may require high temperatures. Stability at room temperature or at 4 °C is also important since the storage at these temperatures is easier for the user and more affordable than at -20 °C. No statistically significance differences were observed on the anti-HIV-1 activity of P3 peptide stored at 25, 37 and 65 °C for a period of a week. The stability of P3 under different temperatures is much better than other peptide-based microbicide candidates or d ...

As for `CCCCCCCCCc1ccc(OCCOCCOCCOCCOCCOCCOCCOCCOCCO)cc1` [N9, nonoxynol-9, reference compound], the “level of irritation of the vaginal wall” value in data set [1] (3% N9 in PBS daily for 7 days, three samples) is given as “average (average 5–8)”. In data set [1] (mouse 13), this compound displayed an Edema/fibrosis of 0, an Epithelial lesion of 3, an Inflammatory infiltrate of 3 and a Vascular congestion of 2. Further, the “Total Score” value in data set [1] (mouse 13) was found to be 8. For the same compound, in data set [1] (mouse 14), the Edema/fibrosis is 0, the Epithelial lesion is on record as 2, the Inflammatory infiltrate came to 3 and the Vascular congestion was 2. In addition, the “Total Score” value in data set [1] (mouse 14) is 7. In addition, in data set [1] (mouse 15), the Edema/fibrosis was 0, the Epithelial lesion is on record as 3, the Inflammatory infiltrate is 3 and the Vascular congestion was found to be 2. In addition, the “Total Score” value in data set [1] (mouse 15) was determined as 8.
As to Spantide II, the thermal stability entry in data set [2] is “not stable”.
